The source of these data is PubChem BioAssay (NCI).

Test systems include HCT-15 colon; HS 578T breast; M14 melanoma; NCI/ADR-RES ovarian; OVCAR-8 ovarian; PC-3 prostate; RPMI-8226 leukemia; SK-MEL-28 melanoma; UACC-257 melanoma; MDA-MB-231 breast.
What all share (experiment): NCI-60 cell line screen, 48 h

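Where inhibition never reached the appropriate level, the endpoint shown equals the highest concentration tested. Otherwise, values were interpolated linearly from a five-concentration, 48-hour dose response in 96-well plates. GI50 marks 50% less growth. TGI is the concentration that stops growth completely.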 Where a SMILES comes first, the peptide text is derived from it. Bridges are numbered along the chain shown (N, C = ends). Roman numbers before positions name the chains, in order. [ ]: non-standard residue; d: D form. The star is where a group is joined. Heptadecanoyl = CCCCCCCCCCCCCCCCC(=O)*; Phg = N[CH](C(=O)O)c1ccccc1 Some results are limits rather than exact numbers.

For the molecule `Nc1nc(Cl)nc2c1ncn2C1CCC(CO)O1` (stereo not drawn), the TGI in the experiment on HCT-15 colon, with HS 578T breast, with M14 melanoma, in the experiment on NCI/ADR-RES ovarian, with OVCAR-8 ovarian and with PC-3 prostate was over 100 µM in each case. Moreover, the TGI in the experiment on RPMI-8226 leukemia, in the experiment with SK-MEL-28 melanoma and in the experiment on UACC-257 melanoma was over 100 µM throughout.

For the molecule `CN(C)C(=S)SCc1ccccc1`, the TGI with HCT-15 colon, in the experiment on HS 578T breast, in the experiment with M14 melanoma, with MDA-MB-231 breast, in the experiment with NCI/ADR-RES ovarian and in the experiment with OVCAR-8 ovarian was over 100 µM each time. Moreover, the TGI in the experiment with SK-MEL-28 melanoma and in the experiment on UACC-257 melanoma was over 100 µM each time.

As for `Cc1cccc(C(O)c2ccccn2)c1O` (stereo not drawn), the TGI with HCT-15 colon, with HS 578T breast, with MDA-MB-231 breast, in the experiment with NCI/ADR-RES ovarian, in the experiment on OVCAR-8 ovarian and in the experiment on PC-3 prostate was over 100 µM throughout. Also, the TGI in the experiment with RPMI-8226 leukemia, in the experiment with SK-MEL-28 melanoma and with UACC-257 melanoma was over 100 µM in each case.

For `N#CC(C#N)=Cc1ccc(-c2ccc(-c3nc4ccccc4s3)cc2)s1`, the GI50 with HCT-15 colon was 15.5 µM; in the experiment on M14 melanoma it was 29.3 µM; with MDA-MB-231 breast it was 16.1 µM; in the experiment on NCI/ADR-RES ovarian, 5.74 µM; with OVCAR-8 ovarian, 23.1 µM; in the experiment with PC-3 prostate it was 6.23 µM. Moreover, the GI50 with SK-MEL-28 melanoma is 37.5 µM; in the experiment with UACC-257 melanoma, 65.3 µM. Further, the TGI was found to be 40 µM in the experiment with HCT-15 colon; 96.2 µM in the experiment on M14 melanoma; 36.9 µM in the experiment with MDA-MB-231 breast; 22.7 µM in the experiment on NCI/ADR-RES ovarian; 72.2 µM in the experiment with OVCAR-8 ovarian; 23.1 µM in the experiment on PC-3 prostate. Besides, the TGI in the experiment on SK-MEL-28 melanoma and with UACC-257 melanoma was over 100 µM throughout.

Consider `CCCCCCCCCCCCCCCCC(=O)N1CCCC1C(=O)NCC(=O)NC(C(=O)N1CCCC1C(=O)NC(CO)C(=O)NC(Cc1ccc(O)cc1)C(=O)NC(CCCCNC(=O)C1CCCN1C(=O)C(CCCCN)NC(=O)C(CCCCN)NC(=O)C(CCCCN)NC(=O)C(CCCNC(=N)N)NC(=O)C(CCCCN)NC(=O)C(N)C(C)C)C(=O)NC(CC(C)C)C(=O)NC(CCCNC(=N)N)C(=O)N1CCCC1C(=O)NCC(N)=O)c1ccccc1` (stereo not drawn) (I: Heptadecanoyl-PG[Phg]PSYKLRPG-NH2 / II: H-VKRKKKP; amide I:7-II:C; configuration not given here), for which the GI50 is over 100 µM in the experiment with HS 578T breast; 25.3 µM in the experiment with M14 melanoma; 17.7 µM in the experiment with MDA-MB-231 breast; 26.2 µM with NCI/ADR-RES ovarian; 28.2 µM with OVCAR-8 ovarian; 13.5 µM in the experiment on RPMI-8226 leukemia. The values for the GI50 with SK-MEL-28 melanoma and with UACC-257 melanoma were 19.5 µM and 12.2 µM, respectively. The TGI is over 100 µM with HS 578T breast; 99.7 µM with M14 melanoma; 36.1 µM in the experiment with MDA-MB-231 breast; 84 µM with NCI/ADR-RES ovarian; 84.6 µM in the experiment on OVCAR-8 ovarian; 35.3 µM with RPMI-8226 leukemia. The TGI in the experiment with SK-MEL-28 melanoma is over 100 µM; in the experiment on UACC-257 melanoma, 62.9 µM.
